Consider 50 molecules from US9238039B2, “Pyrazolo[1,5-A]pyrimidines for antiviral treatment” (Gilead Sciences, Inc., priority 2010, dated 2016).

This assay has as its system RSV strain A2. Description: RSV antiviral cytoprotection assay in Hep2 cells (96-well and 384-well format, Cell TiterGlo read-out). Conditions: human respiratory syncytial virus; for inhibition at 0.5 µM: HEp-2, 0.5 uM, RSV-induced cytopathic effect in Hep2 cells, calculated from fitted dose response curve, normalized to 0% and 100%; for EC50: HEp-2, RSV-induced cytopathic effects, Hep2 cells, class symbols. It counts as cell-based, Respiratory Syncytial Virus (RSV).

In the case of `Cc1cn2nc([C@@H]3CCCCN3C(=O)c3cc(Cl)ccc3NS(C)(=O)=O)cc2nc1N1CCC(N)CC1` [Compound 216], the inhibition (commonly the change of the read-out against control, counted positive when it falls) at 0.5 µM was 100% and the concentration for a half-maximal effect (EC50) (commonly the concentration at which the effect is half-maximal) is 0.1 to 100 nM.

As for `CCn1nccc1C(=O)N1CCCC[C@H]1c1cc2nc(N3CC[C@H](N)C3)c(C)cn2n1` [Compound 278], the inhibition at 0.5 µM was 99% and the EC50 lay within 0.1 to 100 nM.

Turning to `C[C@@H]1CN(c2cc(N3CCC3)nc3cc([C@@H]4CCCCN4C(=O)c4cc(Cl)ccc4NS(C)(=O)=O)nn23)CCN1` [Compound 154], the inhibition at 0.5 µM was 100% and the EC50 was in the range of 0.1 to 100 nM.

For `Cc1cn2nc([C@@H]3CCCCN3C(=O)c3csc4c3CCCC4)cc2nc1N1CC[C@H](N)C1` [Compound 369], the inhibition at 0.5 µM is 91% and the EC50 fell in the range of 0.1 to 100 nM.

`CS(=O)(=O)Nc1ccc(Br)cc1C(=O)N1CCCC[C@H]1c1cc2nc(N3CCC3)cc(N3CCOCC3)n2n1` [Compound 79]: the inhibition at 0.5 µM is 100% and the EC50 fell in the range of 0.1 to 100 nM.

Regarding `Cc1cc(C2CC2)nc2cc([C@@H]3CCCCN3C(=O)[C@](C)(NS(C)(=O)=O)c3ccccc3)nn12` [Compound 240], the inhibition at 0.5 µM was 71% and the EC50 fell in the range of 101 to 1000 nM.

Take `COc1ccsc1C(=O)N1CCCC[C@H]1c1cc2nc(N3CC[C@H](N)C3)c(C)cn2n1` [Compound 308]: the inhibition at 0.5 µM was 100% and the EC50 was 0.1 to 100 nM.

For `Cc1cc(N2CC(O)C2)nc2cc([C@@H]3CCCCN3C(=O)c3cc(Br)ccc3NS(C)(=O)=O)nn12` [Compound 82], the inhibition at 0.5 µM is 100% and the EC50 fell in the range of 0.1 to 100 nM.

As to `Cc1cc(C2CC2)nc2cc([C@@H]3CCCCN3C(=O)C(NS(C)(=O)=O)c3ccccc3)nn12` (some centres unmarked) [Compound 241], the inhibition at 0.5 µM was 99% and the EC50 was 0.1 to 100 nM.

As to `Cc1cn2nc([C@@H]3CCCCN3C(=O)c3nccs3)cc2nc1N1CC[C@H](N)C1` [Compound 268], the inhibition at 0.5 µM was 76% and the EC50 was 101 to 1000 nM.

In the case of `CCOc1ccccc1C(=O)N1CCCC[C@H]1c1cc2nc(N3CC[C@H](N)C3)c(C)cn2n1` [Compound 323], the inhibition at 0.5 µM is 100% and the EC50 lay in the range of 0.1 to 100 nM.

Take `CN1CCN(c2cc(N3CC(O)C3)nc3cc([C@@H]4CCCCN4C(=O)c4cc(Cl)ccc4NS(C)(=O)=O)nn23)CC1` [Compound 54]: the inhibition at 0.5 µM is 100% and the EC50 lay in the range of 0.1 to 100 nM.

As for `Cc1cn2nc([C@@H]3CCCCN3C(=O)c3sccc3Cl)cc2nc1N1CC[C@H](N)C1` [Compound 314], the inhibition at 0.5 µM is 100% and the EC50 lay in the range of 0.1 to 100 nM.

On to `CCn1cc(C(=O)N2CCCC[C@H]2c2cc3nc(N4CC[C@H](N)C4)c(C)cn3n2)cn1` [Compound 281], for which the inhibition at 0.5 µM is 37% and the EC50 lay within 101 to 1000 nM.

For the molecule `CC(=O)Nc1ccc(Cl)cc1C(=O)N1CCCC[C@H]1c1cc2nc(N3CC(N)C3)c(C)cn2n1` [Compound 248], the inhibition at 0.5 µM is 100% and the EC50 is 0.1 to 100 nM.

For `Cc1cn2nc([C@@H]3CCCCN3C(=O)c3ccc(Cn4cccn4)o3)cc2nc1N1CC[C@H](N)C1` [Compound 396], the inhibition at 0.5 µM is 99% and the EC50 fell in the range of 0.1 to 100 nM.

As to `Cc1cn2nc([C@@H]3CCCCN3C(=O)c3cccnc3N)cc2nc1N1CC[C@H](N)C1` [Compound 275], the inhibition at 0.5 µM was 100% and the 50% effective concentration (EC50) was in the range of 0.1 to 100 nM.

On to `Cc1cc(C2CC2)nc2cc([C@@H]3CCCCN3C(=O)C(NC(=O)OC(C)(C)C)c3ccccc3Br)nn12` (some centres unmarked) [Compound 237], for which the inhibition at 0.5 µM is 99% and the EC50 is 0.1 to 100 nM.

For `Cc1cn2nc([C@@H]3CCCCN3C(=O)c3cc4ccccn4n3)cc2nc1N1CC[C@H](N)C1` [Compound 312], the inhibition at 0.5 µM was 100% and the EC50 was in the range of 0.1 to 100 nM.

Consider `Cc1cn2nc([C@@H]3CCCCN3C(=O)c3ccc(C4CC4)cc3)cc2nc1N1CC[C@H](N)C1` [Compound 313], for which the inhibition at 0.5 µM was 100% and the EC50 lay within 0.1 to 100 nM.

On to `CS(=O)(=O)Nc1ccc(Cl)cc1C(=O)N1CCCC[C@H]1c1cc2nc(C3CCC3)cc(N3CCOCC3)n2n1` [Compound 73], for which the inhibition at 0.5 µM is 99% and the EC50 was 0.1 to 100 nM.

Consider `Cc1cn2nc([C@@H]3CCCCN3C(=O)c3cc(Cl)ccc3NS(C)(=O)=O)cc2nc1N1CC(OC(=O)CN)C1` [Compound 172], for which the inhibition at 0.5 µM is 100% and the EC50 is 0.1 to 100 nM.

Turning to `Cc1cc(C2CC2)nc2cc([C@@H]3CCCCN3C(=O)c3cc(Cl)ccc3NS(C)(=O)=O)nn12` [Compound 60], the inhibition at 0.5 µM is 100% and the EC50 lay in the range of 0.1 to 100 nM.

On to `Cc1ccc(NS(C)(=O)=O)c(C(=O)N2CCCC[C@H]2c2cc3nc(C)c(C)c(N4CCCCC4)n3n2)c1` [Compound 236], for which the inhibition at 0.5 µM is 98% and the concentration for a half-maximal effect (EC50) lay within 0.1 to 100 nM.

In the case of `CS(=O)(=O)Nc1ccc(Cl)cc1C(=O)N1CCCC[C@H]1c1cc2nc(N3CC(N)C3)ccn2n1` [Compound 53], the inhibition at 0.5 µM is 98% and the EC50 is 0.1 to 100 nM.

On to `Cc1ccc(N2CCCS2(=O)=O)c(C(=O)N2CCCC[C@H]2c2cc3nc(C4CC4)cc(C)n3n2)c1` [Compound 113], for which the inhibition at 0.5 µM is 100% and the EC50 lay in the range of 0.1 to 100 nM.

In the case of `Cc1cn2nc([C@@H]3CCCCN3C(=O)c3cc(Cl)ccc3NS(C)(=O)=O)cc2nc1N1CC[C@@H](CO)C1` [Compound 198], the inhibition at 0.5 µM is 95% and the EC50 lay in the range of 0.1 to 100 nM.

Regarding `Cc1cn2nc([C@@H]3CCCCN3C(=O)c3cccc(C(C)C#N)c3)cc2nc1N1CC[C@H](N)C1` (some centres unmarked) [Compound 351], the inhibition at 0.5 µM was 100% and the EC50 was in the range of 0.1 to 100 nM.

As for `Cc1ccc(NS(C)(=O)=O)c(C(=O)N2Cc3ccccc3C[C@H]2c2cc3[nH]c(C)c(C)c(=O)n3n2)c1` [Compound 33], the inhibition at 0.5 µM is 98% and the EC50 was in the range of 0.1 to 100 nM.

With `COc1ccc(Cl)c(C(=O)N2CCCC[C@H]2c2cc3nc(N4CC[C@H](N)C4)c(C)cn3n2)c1` [Compound 374], the inhibition at 0.5 µM is 100% and the EC50 lay in the range of 0.1 to 100 nM.

For `Cc1cn2nc([C@@H]3CCCCN3C(=O)c3ccco3)cc2nc1N1CC[C@H](N)C1` [Compound 258], the inhibition at 0.5 µM is 100% and the EC50 fell in the range of 0.1 to 100 nM.

On to `Cc1cn2nc([C@@H]3CCCCN3C(=O)c3cc(Cl)ccc3NS(C)(=O)=O)cc2nc1N1CC(CO)C1` [Compound 213], for which the inhibition at 0.5 µM is 99% and the concentration for a half-maximal effect (EC50) lay within 0.1 to 100 nM.

Consider `CS(=O)(=O)Nc1ccc(Cl)cc1C(=O)N1CCCC[C@H]1c1cc2nc(N3CC(O)C3)cc(N3CC4(COC4)C3)n2n1` [Compound 58], for which the inhibition at 0.5 µM was 99% and the EC50 is 0.1 to 100 nM.

As for `Cc1cn2nc([C@@H]3CCCCN3C(=O)c3cc(Cl)ccc3NS(C)(=O)=O)cc2nc1N1C[C@@H]2[C@@H](N)[C@@H]2C1` [Compound 148], the inhibition at 0.5 µM is 100% and the EC50 lay within 0.1 to 100 nM.

Take `Cc1cc(N2CC[C@@H](O)C2)nc2cc([C@@H]3CCCCN3C(=O)c3cc(Cl)ccc3NS(C)(=O)=O)nn12` [Compound 48]: the inhibition at 0.5 µM is 99% and the 50% effective concentration (EC50) lay in the range of 0.1 to 100 nM.

Consider `Cc1cc(N2CC(O)C2)nc2cc([C@@H]3CCCCN3C(=O)c3cc(Cl)ccc3NS(C)(=O)=O)nn12` [Compound 40], for which the inhibition at 0.5 µM was 100% and the EC50 is 0.1 to 100 nM.

On to `Cc1cn2nc([C@@H]3CCCCN3C(=O)c3cccc(C)c3Cl)cc2nc1N1CC[C@H](N)C1` [Compound 334], for which the inhibition at 0.5 µM is 100% and the 50% effective concentration (EC50) was in the range of 0.1 to 100 nM.

On to `CS(=O)(=O)Nc1ccc(Cl)cc1C(=O)N1CCCC[C@H]1c1cc2nc(N3CC[C@@H](O)C3)ccn2n1` [Compound 51], for which the inhibition at 0.5 µM was 98% and the 50% effective concentration (EC50) was in the range of 0.1 to 100 nM.

As to `CCCn1nc(C)cc1C(=O)N1CCCC[C@H]1c1cc2nc(N3CC[C@H](N)C3)c(C)cn2n1` [Compound 329], the inhibition at 0.5 µM was 98% and the EC50 lay within 0.1 to 100 nM.

`Cc1cn2nc([C@@H]3CCCCN3C(=O)c3ccc(C(N)=O)s3)cc2nc1N1CC[C@H](N)C1` [Compound 336]: the inhibition at 0.5 µM is 78% and the EC50 lay within 101 to 1000 nM.

In the case of `Cc1cn2nc([C@@H]3CCCCN3C(=O)c3cc(Cl)ccc3NS(C)(=O)=O)cc2nc1NCCNCCO` [Compound 235], the inhibition at 0.5 µM is 99% and the EC50 lay within 0.1 to 100 nM.

As for `Cc1cn2nc([C@@H]3CCCCN3C(=O)c3cc(Cl)ccc3NS(C)(=O)=O)cc2nc1N1CCC(C)(C#N)C1` (some centres unmarked) [Compound 205], the inhibition at 0.5 µM was 91% and the EC50 lay within 0.1 to 100 nM.

For the molecule `Cc1cn2nc([C@@H]3CCCCN3C(=O)c3nnn(C)c3C)cc2nc1N1CC[C@H](N)C1` [Compound 285], the inhibition at 0.5 µM was 100% and the EC50 was 0.1 to 100 nM.

With `Cc1cn2nc([C@@H]3CCCCN3C(=O)c3scnc3C)cc2nc1N1CC[C@H](N)C1` [Compound 287], the EC50 was 1000 to 10000 nM.

In the case of `Cc1cn2nc([C@@H]3CCCCN3C(=O)c3cc(Cl)ccc3NS(C)(=O)=O)cc2nc1N1CCCN1` [Compound 140], the inhibition at 0.5 µM was 100% and the EC50 was in the range of 0.1 to 100 nM.

As to `Cc1cn2nc([C@@H]3CCCCN3C(=O)c3ccc(C#N)cn3)cc2nc1N1CC[C@H](N)C1` [Compound 290], the EC50 fell in the range of 0.1 to 100 nM.

As to `Cc1cn2nc([C@@H]3CCCCN3C(=O)c3cc(F)ccc3Cl)cc2nc1N1CC[C@H](N)C1` [Compound 347], the inhibition at 0.5 µM was 100% and the EC50 is 0.1 to 100 nM.

`CN(C)CCN(C)c1cc(N2CC(O)C2)nc2cc([C@@H]3CCCCN3C(=O)c3cc(Cl)ccc3NS(C)(=O)=O)nn12` [Compound 55]: the inhibition at 0.5 µM is 100% and the EC50 was in the range of 0.1 to 100 nM.

With `Cc1cn2nc([C@@H]3CCCCN3C(=O)c3cccnc3F)cc2nc1N1CC[C@H](N)C1` [Compound 282], the inhibition at 0.5 µM is 100% and the EC50 was in the range of 0.1 to 100 nM.

For the molecule `Cc1cc(C(=O)N2CCCC[C@H]2c2cc3nc(N4CC[C@H](N)C4)c(C)cn3n2)c(C(F)(F)F)o1` [Compound 399], the inhibition at 0.5 µM is 100% and the EC50 was 0.1 to 100 nM.
